Data published in EP3262942A1, “SELENODIARYLS FOR USE AS MICROBICIDE OR AS MEDICINE” (Evonik Degussa GmbH, priority 2016, dated 2018).

What was measured:
M. grisea H2O = experiment: microbe, parasite or virus in culture; format: cell-based, Magnaporthe grisea; conditions: Pyricularia grisea, H2O, 24 h, read-out: Aktivität gegenüber M. grisea H2O
Candida albicans = experiment: Growth test in microtiter plates, HA medium, 24 h, visual evaluation; format: cell-based; design: key: +: kein Wachstum im Vergleich zur Wachstumskontrolle; -: Wachstum wie Wachstumskontrolle
Botrytis cinerea = experiment: microbe, parasite or virus in culture; format: cell-based; conditions: for inhibition of growth at 5 µg/mL / inhibition of growth at 10 µg/mL / inhibition of growth at 25 µg/mL / inhibition of growth at 50 µg/mL: Botrytis cinerea, 24 h, read-out: Aktivität gegenüber B. cinerea
M. grisea CM = experiment: microbe, parasite or virus in culture; format: cell-based, Magnaporthe grisea; conditions: Pyricularia grisea, 24 h, read-out: Aktivität gegenüber M. grisea CM
Paecilomyces variotii = experiment: Growth test in microtiter plates, HA medium, 24 h, visual evaluation; format: cell-based; design: key: +: kein Wachstum im Vergleich zur Wachstumskontrolle; -: Wachstum wie Wachstumskontrolle
Mucor miehei = experiment: as above; format: cell-based; design: key to Aktivität gegenüber M. miehei: +: kein Wachstum im Vergleich zur Wachstumskontrolle; -: Wachstum wie Wachstumskontrolle
Penicillium notatum = experiment: as above; format: cell-based; design: key: +: kein Wachstum im Vergleich zur Wachstumskontrolle; -: Wachstum wie Wachstumskontrolle
P. infestans = experiment: microbe, parasite or virus in culture; format: cell-based, Phytophthora infestans; conditions: for inhibition of growth at 5 µg/mL / inhibition of growth at 10 µg/mL / inhibition of growth at 25 µg/mL / inhibition of growth at 50 µg/mL: Phytophthora infestans, 24 h, read-out: Aktivität gegenüber P. infestans
Lepidium sativum = experiment: Crop plant growth test, seeds on filter discs, 4 days, visual evaluation; format: in vivo
Method: (§1) Testsubstanzen und Kontrollen werden auf Filterrondellen in Mikrotiterplatten (48 well) vorgelegt und das verwendete Lösungsmittel (DMSO) über Lyophilisation entfernt. Anschließend werden ca. 12 Samen pro Vertiefung (Setaria italical Lepidium sativum) zugeben, mit 200 µl sterilem Leitungswasser pro Vertiefung versetzt, mit einem Deckel versehen und in einer feuchten Kammer für 4 Tage im Pflanzenbrutschrank inkubiert (16h-Licht-8h-Dunkel-Rhythmus). Die Auswertung des Tests erfolgt optisch (+: mind. 75 % Wachstumshemmung im Vergleich zur Kontrolle, -: weniger als 75 % Wachstumshemmung im Vergleich zur Kontrolle.

Setaria italica = experiment: as above; format: in vivo
Method: as §1

Compound	inhibition of growth at 5 µg/mL (M. grisea H2O)	inhibition of growth at 10 µg/mL (M. grisea H2O)	inhibition of growth at 25 µg/mL (M. grisea H2O)	inhibition of growth at 50 µg/mL (M. grisea H2O)	Aktivität gegenüber C. albicans (Candida albicans; 10µg/mL)	Aktivität gegenüber C. albicans (Candida albicans; 50µg/mL)	inhibition of growth at 5 µg/mL (Botrytis cinerea)	inhibition of growth at 10 µg/mL (Botrytis cinerea)	inhibition of growth at 25 µg/mL (Botrytis cinerea)	inhibition of growth at 50 µg/mL (Botrytis cinerea)	inhibition of growth at 5 µg/mL (M. grisea CM)	inhibition of growth at 10 µg/mL (M. grisea CM)	inhibition of growth at 25 µg/mL (M. grisea CM)	inhibition of growth at 50 µg/mL (M. grisea CM)	Aktivität gegenüber P. variotii (Paecilomyces variotii; 10µg/mL)	Aktivität gegenüber P. variotii (Paecilomyces variotii; 50µg/mL)	Aktivität gegenüber M. miehei (Mucor miehei; 10µg/mL)	Aktivität gegenüber M. miehei (Mucor miehei; 50µg/mL)	Aktivität gegenüber P. notatum (Penicillium notatum; 10µg/mL)	Aktivität gegenüber P. notatum (Penicillium notatum; 50µg/mL)	also measured
Cc1cc(Cl)cc([Se]c2cc(Cl)cc(C)c2O)c1O [Verbindung 22, Bis(3-chlor-6-hydroxy-5-methylphenyl)selen]	> 75%	> 75%	> 75%	> 75%	-	-	> 75%	> 75%	> 75%	> 75%	> 75%	> 75%	> 75%	> 75%	-	-	-	-	-	-	mikrobizide Wirksamkeit gegenüber B. cinerea (Botrytis cinerea): mikrobizide Wirksamkeit; inhibition of growth at 5 µg/mL (P. infestans): 0 to 25%; inhibition of growth at 10 µg/mL (P. infestans): > 75%; inhibition of growth at 25 µg/mL (P. infestans): > 75%; inhibition of growth at 50 µg/mL (P. infestans): > 75%; Aktivität gegenüber Nutzpflanzen: L. sativum (Lepidium sativum; 10µg/R): - (weniger als 75 % Wachstumshemmung im Vergleich zur Kontrolle); Aktivität gegenüber Nutzpflanzen: L. sativum (Lepidium sativum; 20µg/R): - (weniger als 75 % Wachstumshemmung im Vergleich zur Kontrolle); Aktivität gegenüber Nutzpflanzen: L. sativum (Lepidium sativum; 50µg/R): - (weniger als 75 % Wachstumshemmung im Vergleich zur Kontrolle); Aktivität gegenüber Nutzpflanzen: S. italica (Setaria italica; 10µg/R): - (weniger als 75 % Wachstumshemmung im Vergleich zur Kontrolle); Aktivität gegenüber Nutzpflanzen: S. italica (Setaria italica; 20µg/R): - (weniger als 75 % Wachstumshemmung im Vergleich zur Kontrolle); Aktivität gegenüber Nutzpflanzen: S. italica (Setaria italica; 50µg/R): - (weniger als 75 % Wachstumshemmung im Vergleich zur Kontrolle)
Cc1cc(Br)c(O)c([Se]c2cc(C)cc(Br)c2O)c1 [Verbindung 23, Bis(3-brom-2-hydroxy-5-methylphenyl)selen]	0 to 25%	25 to 50%	> 75%	> 75%	-	-	0 to 25%	0 to 25%	0 to 25%	0 to 25%	> 75%	> 75%	> 75%	> 75%	-	-	-	-	-	-	inhibition of growth at 5 µg/mL (P. infestans): 0 to 25%; inhibition of growth at 10 µg/mL (P. infestans): 0 to 25%; inhibition of growth at 25 µg/mL (P. infestans): 0 to 25%; inhibition of growth at 50 µg/mL (P. infestans): 0 to 25%; Wirksamkeit gegenüber P. infestans (P. infestans; […]): keine Wirkung; Aktivität gegenüber Nutzpflanzen: L. sativum (Lepidium sativum; 10µg/R): - (weniger als 75 % Wachstumshemmung im Vergleich zur Kontrolle); Aktivität gegenüber Nutzpflanzen: L. sativum (Lepidium sativum; 20µg/R): - (weniger als 75 % Wachstumshemmung im Vergleich zur Kontrolle); Aktivität gegenüber Nutzpflanzen: L. sativum (Lepidium sativum; 50µg/R): - (weniger als 75 % Wachstumshemmung im Vergleich zur Kontrolle); Aktivität gegenüber Nutzpflanzen: S. italica (Setaria italica; 10µg/R): - (weniger als 75 % Wachstumshemmung im Vergleich zur Kontrolle); Aktivität gegenüber Nutzpflanzen: S. italica (Setaria italica; 20µg/R): - (weniger als 75 % Wachstumshemmung im Vergleich zur Kontrolle); Aktivität gegenüber Nutzpflanzen: S. italica (Setaria italica; 50µg/R): - (weniger als 75 % Wachstumshemmung im Vergleich zur Kontrolle)
